Test results: PubChem BioAssay (NCI)
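GI50 marks 50% less growth. The concentration for full growth arrest is given as TGI.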

Legend:
Test in all cases: NCI-60 cell line screen, 384-well format
786-0 renal = tested on: 786-0 renal
A498 renal = tested on: A498 renal
A549 NSCLC = tested on: A549 NSCLC
BT-549 breast = tested on: BT-549 breast
CAKI-1 renal = tested on: CAKI-1 renal
CCRF-CEM leukemia = tested on: CCRF-CEM leukemia
COLO 205 colon = tested on: COLO 205 colon
DU-145 prostate = tested on: DU-145 prostate
EKVX NSCLC = tested on: EKVX NSCLC
HCC-2998 colon = tested on: HCC-2998 colon
HCT-116 colon = tested on: HCT-116 colon
HCT-15 colon = tested on: HCT-15 colon
HL-60(TB) leukemia = tested on: HL-60(TB) leukemia
HOP-62 NSCLC = tested on: HOP-62 NSCLC
HOP-92 NSCLC = tested on: HOP-92 NSCLC
HS 578T breast = tested on: HS 578T breast
HT29 colon = tested on: HT29 colon
IGROV1 ovarian = tested on: IGROV1 ovarian
K-562 leukemia = tested on: K-562 leukemia
KM12 colon = tested on: KM12 colon
LOX IMVI melanoma = tested on: LOX IMVI melanoma
M14 melanoma = tested on: M14 melanoma
MALME-3M melanoma = tested on: MALME-3M melanoma
MCF7 breast = tested on: MCF7 breast
MDA-MB-231 breast = tested on: MDA-MB-231 breast
MDA-MB-435 melanoma = tested on: MDA-MB-435 melanoma
MDA-MB-468 breast = tested on: MDA-MB-468 breast
MOLT-4 leukemia = tested on: MOLT-4 leukemia
NCI-H226 lung = tested on: NCI-H226 lung
NCI-H23 lung = tested on: NCI-H23 lung
NCI-H322M lung = tested on: NCI-H322M lung
NCI-H460 NSCLC = tested on: NCI-H460 NSCLC
NCI-H522 lung = tested on: NCI-H522 lung
NCI/ADR-RES ovarian = tested on: NCI/ADR-RES ovarian
OVCAR-3 ovarian = tested on: OVCAR-3 ovarian
OVCAR-4 ovarian = tested on: OVCAR-4 ovarian
OVCAR-5 ovarian = tested on: OVCAR-5 ovarian
OVCAR-8 ovarian = tested on: OVCAR-8 ovarian
PC-3 prostate = tested on: PC-3 prostate
RPMI-8226 leukemia = tested on: RPMI-8226 leukemia
RXF 393 renal = tested on: RXF 393 renal
SF-268 CNS = tested on: SF-268 CNS
SF-295 CNS = tested on: SF-295 CNS
SF-539 CNS = tested on: SF-539 CNS
SK-MEL-2 melanoma = tested on: SK-MEL-2 melanoma
SK-MEL-28 melanoma = tested on: SK-MEL-28 melanoma
SK-MEL-5 melanoma = tested on: SK-MEL-5 melanoma
SK-OV-3 ovarian = tested on: SK-OV-3 ovarian
SN12C renal = tested on: SN12C renal
SNB-19 CNS = tested on: SNB-19 CNS
SNB-75 CNS = tested on: SNB-75 CNS
SR leukemia = tested on: SR leukemia
SW-620 colon = tested on: SW-620 colon
T-47D breast = tested on: T-47D breast
TK-10 renal = tested on: TK-10 renal
U251 glioblastoma = tested on: U251 glioblastoma
UACC-257 melanoma = tested on: UACC-257 melanoma
UACC-62 melanoma = tested on: UACC-62 melanoma
UO-31 renal = tested on: UO-31 renal

## CCN1CCC(Oc2c(C#N)ncc3[nH]c4ncccc4c23)CC1
786-0 renal
  GI50: 2.52 µM
  TGI: > 100 µM
A498 renal
  GI50: < 0.0456 µM
  TGI: 0.133 µM
A549 NSCLC
  GI50: > 100 µM
  TGI: > 100 µM
BT-549 breast
  GI50: 0.147 µM
  TGI: 0.426 µM
CAKI-1 renal
  GI50: 3.4 µM
  TGI: > 100 µM
CCRF-CEM leukemia
  GI50: 0.182 µM
  TGI: 0.356 µM
COLO 205 colon
  GI50: 2.52 µM
  TGI: 5.81 µM
DU-145 prostate
  GI50: 5.9 µM
  TGI: > 100 µM
EKVX NSCLC
  GI50: > 100 µM
  TGI: > 100 µM
HCC-2998 colon
  GI50: 0.0933 µM
  TGI: 0.41 µM
HCT-116 colon
  GI50: 1.27 µM
  TGI: 2.85 µM
HCT-15 colon
  GI50: 2.26 µM
  TGI: > 88.1 µM
HL-60(TB) leukemia
  GI50: 0.548 µM
  TGI: 1.04 µM
HOP-62 NSCLC
  GI50: 0.311 µM
  TGI: 2.06 µM
HOP-92 NSCLC
  GI50: 0.183 µM
HS 578T breast
  GI50: 0.199 µM
  TGI: 1.4 µM
HT29 colon
  GI50: 5.96 µM
  TGI: > 100 µM
IGROV1 ovarian
  GI50: 1.63 µM
  TGI: > 100 µM
K-562 leukemia
  GI50: 0.253 µM
  TGI: 0.694 µM
KM12 colon
  GI50: 0.64 µM
  TGI: 3.9 µM
LOX IMVI melanoma
  GI50: 1.67 µM
  TGI: > 100 µM
M14 melanoma
  GI50: 0.398 µM
  TGI: 1.65 µM
MALME-3M melanoma
  GI50: 9.76 µM
  TGI: > 100 µM
MCF7 breast
  GI50: 0.317 µM
  TGI: > 100 µM
MDA-MB-231 breast
  GI50: 26.3 µM
  TGI: 69.8 µM
MDA-MB-435 melanoma
  GI50: 0.52 µM
  TGI: 1.76 µM
MDA-MB-468 breast
  TGI: > 22.5 µM
MOLT-4 leukemia
  GI50: 0.172 µM
  TGI: 0.327 µM
NCI-H226 lung
  GI50: > 23.5 µM
  TGI: > 100 µM
NCI-H23 lung
  GI50: 0.423 µM
  TGI: 18.4 µM
NCI-H322M lung
  GI50: 0.449 µM
  TGI: > 100 µM
NCI-H460 NSCLC
  GI50: 0.997 µM
  TGI: 3.94 µM
NCI-H522 lung
  GI50: 3.19 µM
  TGI: > 100 µM
NCI/ADR-RES ovarian
  GI50: 0.13 µM
  TGI: 0.438 µM
OVCAR-3 ovarian
  GI50: 0.501 µM
  TGI: 1.18 µM
OVCAR-4 ovarian
  GI50: > 100 µM
  TGI: > 100 µM
OVCAR-5 ovarian
  GI50: 2.65 µM
  TGI: > 100 µM
OVCAR-8 ovarian
  GI50: 1.01 µM
  TGI: > 100 µM
PC-3 prostate
  GI50: 4.79 µM
  TGI: > 90.2 µM
RPMI-8226 leukemia
  GI50: 0.72 µM
  TGI: 1.97 µM
RXF 393 renal
  GI50: 0.0515 µM
  TGI: 0.211 µM
SF-268 CNS
  GI50: 3.5 µM
  TGI: 14.8 µM
SF-295 CNS
  GI50: 0.12 µM
  TGI: 0.619 µM
SF-539 CNS
  GI50: 0.0858 µM
  TGI: 0.273 µM
SK-MEL-2 melanoma
  GI50: 1.17 µM
  TGI: 4.47 µM
SK-MEL-28 melanoma
  GI50: > 100 µM
  TGI: > 100 µM
SK-MEL-5 melanoma
  GI50: 2.61 µM
  TGI: > 100 µM
SK-OV-3 ovarian
  GI50: 0.578 µM
  TGI: > 24 µM
SN12C renal
  GI50: 3.25 µM
  TGI: > 52.1 µM
SNB-19 CNS
  GI50: 4.56 µM
  TGI: > 100 µM
SNB-75 CNS
  GI50: 7.16 µM
  TGI: > 57.8 µM
SR leukemia
  GI50: < 0.0396 µM
  TGI: 0.0928 µM
SW-620 colon
  GI50: 2.3 µM
  TGI: 5.54 µM
T-47D breast
  GI50: > 100 µM
  TGI: > 100 µM
TK-10 renal
  GI50: 0.329 µM
U251 glioblastoma
  GI50: 1.59 µM
  TGI: > 100 µM
UACC-257 melanoma
  GI50: > 100 µM
  TGI: > 100 µM
UACC-62 melanoma
  GI50: 5.29 µM
  TGI: 27.5 µM
UO-31 renal
  GI50: 0.221 µM
  TGI: 1.65 µM
